Data reported in US7999101B2, “Cationic lipids for the transfection of nucleic acids” (Politecnico Di Milano, priority 2005, dated 2011).

Tests used:
Assay type in all cases: cell-based
[1] = system: normal human thyrocytes (Line 636); assay: Transfection of normal human thyrocytes (Line 636) with 16/pEGFP-N1 complexes; GFP expression and survival; conditions: 16/pEGFP-N1 (5 μg)
[2] = system: transformed human kidney cells (Line 293); assay: Transfection of transformed human kidney cells (Line 293) with 16/pEGFP-N1 complexes; GFP expression and survival; conditions: 16/pEGFP-N1 (5 μg)
[3] = system: cell line PC3 (human androgen-independent prostate carcinoma); assay: Transfection of PC3 cells with plasmid pEGFP-N1; GFP expression by cytofluorimetry 48 h later, and survival; conditions: for capable of giving a significant percentage of living cells expressing the GFP protein (in words) / toxicity / cell mortality with respect to 16, 22 and 17 (in words): 5 μg pEGFP-N1
Protocol: The plasmid vector PEGFP-N1 (BD Biosciences), containing the gene encoding green fluorescent protein (GFP) has been used in the transfection tests. Due to its properties, GFP is a useful tool for monitoring “passive” gene expression: indeed, fluorescent detection in this particular system is performed by means of cytofluorimetry or by microscopy.
Transfection tests have been performed on the cell line PC3 (human androgen-independent prostate carcinoma) with the plasmid PEGFP-N1 used in quantities equal to 2.5 and 5 μg. The general experimental outline envisaged 4 hours of transfection in reduced-serum culture medium, and in the absence of antibiotics. Upon completion of transfection, the culture medium has been replaced with normal growth medium and the evaluation of GFP expression has been performed 48 hours later by means of cytofluorimetry.

[4] = CR = 6, percentage with respect to control, preliminary data
[5] = 2.5 μg pEGFP-N1, 16 and 17 at CR = 6.0, commercial agents per manufacturer, at least 3 independent experiments (Table 3)
[6] = 2.5 μg pEGFP-N1, 16 and 17 at CR = 6.0, commercial agents per manufacturer, mean percentage with respect to control, at least 3 independent experiments (Table 3)
[7] = 2.5 μg pEGFP-N1, charge ratio CR = 1.5
[8] = 2.5 μg pEGFP-N1, charge ratio CR = 3.0
[9] = 2.5 μg pEGFP-N1, charge ratio CR = 6.0 (Table 1)
[10] = 5 μg pEGFP-N1, 16 and 17 at CR = 6.0, commercial agents per manufacturer, at least 3 independent experiments (Table 3)
[11] = 5 μg pEGFP-N1, 16 and 17 at CR = 6.0, commercial agents per manufacturer, mean percentage with respect to control, at least 3 independent experiments (Table 3)
[12] = 5 μg pEGFP-N1, charge ratio CR = 1.5
[13] = 5 μg pEGFP-N1, charge ratio CR = 3.0
[14] = 5 μg pEGFP-N1, charge ratio CR = 6.0 (Table 1)
[15] = 5 μg pEGFP-N1, constant charge ratio CR = 6 (Table 2)
[16] = 5 μg pEGFP-N1, constant charge ratio CR = 6, percentage with respect to control (Table 2)

`CCCCCCCCCCCCCCNc1nc(NCCS)nc(NCCCN)n1` [Compound 16] was tested, and the Survival [1, 4] was 75.3%, the “GFP+ living cells” value ([1]; CR = 6, preliminary data) was 34.3% and the “Total GFP+ cells” value ([1]; CR = 6, preliminary data) was 53.8%. For the same compound, the Survival [2, 4] was 86.8%, the “GFP+ living cells” value ([2]; CR = 6, preliminary data) was 58.3% and the “Total GFP+ cells” value ([2]; CR = 6, preliminary data) was 76.2%. The “GFP+ living cells” value [3, 5] was 20.5%, the “Total GFP+ cells” value [3, 5] was 25.4% and the Survival [3, 6] was 81.0%. The “GFP+ living cells” value [3, 7] was 1.18%, the “Total GFP+ cells” value [3, 7] was 4.75% and the Survival ([3]; 2.5 μg pEGFP-N1, charge ratio CR = 1.5, percentage with respect to control) was 71.4%. For the same compound, the “GFP+ living cells” value [3, 8] was 4.05%, the “Total GFP+ cells” value [3, 8] was 7.81% and the Survival ([3]; 2.5 μg pEGFP-N1, charge ratio CR = 3.0, percentage with respect to control) was 79.8%. The “GFP+ living cells” value [3, 9] was 32.40%, the “Total GFP+ cells” value [3, 9] was 46.13% and the Survival ([3]; 2.5 μg pEGFP-N1, charge ratio CR = 6.0, percentage with respect to control (Table 1)) was 86.3%. For the same compound, the “GFP+ living cells” value [3, 10] was 41.14%, the “Total GFP+ cells” value [3, 10] was 57% and the Survival [3, 11] was 58.0%. For the same compound, the “GFP+ living cells” value [3, 12] was 1.54%, the “Total GFP+ cells” value [3, 12] was 1.85% and the Survival ([3]; 5 μg pEGFP-N1, charge ratio CR = 1.5, percentage with respect to control) was 100%. For the same compound, the “GFP+ living cells” value [3, 13] was 10.6%, the “Total GFP+ cells” value [3, 13] was 12.45% and the Survival ([3]; 5 μg pEGFP-N1, charge ratio CR = 3.0, percentage with respect to control) was 96.0%. The “GFP+ living cells” value [3, 14] was 64.6%, the “Total GFP+ cells” value [3, 14] was 70.70% and the Survival ([3]; 5 μg pEGFP-N1, charge ratio CR = 6.0, percentage with respect to control (Table 1)) was 64.4%. For the same compound, the “cellular toxicity (in words)” value ([3]; 2.5 and 5 μg pEGFP-N1) was “absence of any significant cellular toxicity”, the “capacity to induce the transfection of PC3 cells (in words)” value ([3]; 2.5 and 5 μg pEGFP-N1, GFP expression 48 hours following transfection) was “significant percentage of GFP-positive cells” and the “transfection efficiency compared with Lipofectamine 2000 (in words)” value ([3]; equal amounts of plasmid DNA) was “comparable to that of Lipofectamine 2000 only in the presence of higher quantities of plasmid DNA”.

With `NCCCNc1nc(NCCS)nc(NCc2ccccc2)n1` [Compound 20] the “capable of giving a significant percentage of living cells expressing the GFP protein (in words)” value [3] was “none”, the “toxicity / cell mortality with respect to 16, 22 and 17 (in words)” value (“toxicity / cell mortality” below) [3] was “did not show excessive levels of toxicity” and the “GFP+ living cells” value [3, 15] was 0.01%. The “Total GFP+ cells” value [3, 15] was 0.9% and the Survival [3, 16] was 74.0%.

`CCCCCCCCCCCCCCNc1nc(NCCS)nc(N2CCNCC2)n1` [Compound 18, 2-[4-(2-N-piperazinyl)-6-tetradecylamino-[1,3,5]triazin-2-ylamino]-ethanethiol] was tested, and the “capable of giving a significant percentage of living cells expressing the GFP protein (in words)” value [3] was “none”, the “toxicity / cell mortality” value [3] was “significantly greater cell mortality” and the “GFP+ living cells” value [3, 15] was 8.4%. The “Total GFP+ cells” value [3, 15] was 56.2% and the Survival [3, 16] was 6.3%.

In the case of `CCCCCCCC/C=C\CCCCCCCC(=O)OCC(C[N+](C)(C)C)OC(=O)CCCCCCC/C=C\CCCCCCCC.[Cl-]` (centres unmarked) [DOTAP, reference compound], the “GFP+ living cells” value [3, 5] is reported as 12.0%, the “Total GFP+ cells” value [3, 5] is reported as 15.8% and the Survival [3, 6] is reported as 78.6%. For the same compound, the “GFP+ living cells” value [3, 10] was 21.3%, the “Total GFP+ cells” value [3, 10] was 23.5% and the Survival [3, 11] was 65.8%. The “percentage of transfection with respect to compounds 16 and 17 (in words)” value ([3]; both quantities of plasmid DNA) was “lower percentage of transfection” and the “toxicity with respect to compounds 16 and 17 (in words)” value ([3]; both quantities of plasmid DNA) was “less toxic”.

`CCCCCCNc1nc(NCCS)nc(NCCCN)n1` [Compound 21] was tested, and the “capable of giving a significant percentage of living cells expressing the GFP protein (in words)” value [3] was “none”, the “toxicity / cell mortality” value [3] was “significantly greater cell mortality” and the “GFP+ living cells” value [3, 15] was 0.3%. For the same compound, the “Total GFP+ cells” value [3, 15] was 2.1% and the Survival [3, 16] was 12.8%.
